Laboratory results as given in ChEMBL document CHEMBL4354782, “Quinolone antibiotics” (Medchemcomm, 2019).
Converted amounts (≈) assume the structure as drawn.

Columns and labels:
[1] = system: Klebsiella; experiment: Antibacterial activity against Klebsiella by agar diffusion method; assay type: functional
[2] = system: Haemophilus influenzae; experiment: Antibacterial activity against Haemophilus influenzae with horse blood by agar diffusion method; assay type: functional
[3] = Cmax in human at 0.4 g, po; assay type: ADME; set-up: dose 0.4 g, route oral; conditions: in vivo
[4] = system: Pseudomonas aeruginosa; experiment: Antibacterial activity against Pseudomonas aeruginosa by agar diffusion method; assay type: functional
[5] = Protein binding in human at 0.4 g, po; assay type: ADME; conditions: in vivo, read-out: PB (converted)
[6] = system: Streptococcus pneumoniae; experiment: Antibacterial activity against Streptococcus pneumoniae by agar diffusion method; assay type: functional
[7] = AUC in human at 0.4 g, po; assay type: ADME; conditions: in vivo
[8] = system: Streptococcus pyogenes; experiment: Antibacterial activity against Streptococcus pyogenes by agar diffusion method; assay type: functional
[9] = system: Staphylococcus aureus; experiment: Antibacterial activity against Staphylococcus aureus by agar diffusion method; assay type: functional
[10] = system: Enterococcus; experiment: Antibacterial activity against Enterococcus by agar diffusion method; assay type: functional
[11] = Half life in human at 0.4 g, po; assay type: ADME; conditions: in vivo
[12] = system: Escherichia coli; experiment: Antibacterial activity against Escherichia coli by agar diffusion method; assay type: functional
[13] = Cmax in human at 0.4 g, po by HPLC analysis; assay type: ADME, organism-based; set-up: dose 0.4 g, route oral; conditions: in vivo
[14] = AUC in human at 0.4 g, po by HPLC analysis; assay type: ADME, organism-based; conditions: in vivo
[15] = system: Clostridium perfringens; experiment: microbe, parasite or virus in culture
[16] = Half life in human at 1 g, po administered for 4 times; assay type: ADME, organism-based; conditions: in vivo
[17] = system: Bacteroides fragilis; experiment: Antibacterial activity against Bacteroides fragilis by agar diffusion method; assay type: functional
[18] = AUC in human at 0.4 g, po bid; assay type: ADME, organism-based; conditions: in vivo
[19] = Cmax in human at 0.4 g, po bid; assay type: ADME, organism-based; set-up: dose 0.4 g, route oral; conditions: in vivo
[20] = Protein binding in human at 0.4 g, po bid; assay type: ADME, organism-based; conditions: in vivo, read-out: PB (converted)
[21] = Half life in human at 0.4 g, po bid; assay type: ADME, organism-based; conditions: in vivo
[22] = species on record: Homo sapiens; experiment: Phototoxicity in human; assay type: organism-based; conditions: in vivo
[23] = Toxicity in human assessed as gastrointestinal effect
[24] = Toxicity in human assessed as arthralgia effect
[25] = Cardiotoxicity in human QTc prolongation; assay type: toxicity
[26] = Haemolytic activity in human; assay type: ADME, organism-based; conditions: in vivo, read-out: Activity
[27] = Toxicity in human assessed as renal failure
[28] = Toxicity in human assessed as thrombocytopenia
[29] = AUC in human at 0.3 g, po; assay type: ADME; conditions: in vivo
[30] = Toxicity in human assessed as hepatic eosinophilia effect
[31] = Toxicity in human assessed as CNS effect by measuring dizziness
[32] = Cmax in human at 0.3 g, po; assay type: ADME; set-up: dose 0.3 g, route oral; conditions: in vivo

CCn1cc(C(=O)O)c(=O)c2cc(F)c(N3CCNC(C)C3)c(F)c21 (centres undefined) [LOMEFLOXACIN]
MIC90 [1]: 0.25 µg/mL (≈ 0.712 µM)
MIC90 [2]: 0.06 µg/mL (≈ 0.171 µM)
Cmax [3]: 2800 ng/mL
MIC90 [4]: 2 µg/mL (≈ 5.69 µM)
fraction unbound [5]: 0.9
MIC90 [6]: 4 µg/mL (≈ 11.4 µM)
AUC [7]: 26000 ng·h/mL
MIC90 [8]: 4 µg/mL (≈ 11.4 µM)
MIC90 [9]: 2 µg/mL (≈ 5.69 µM)
MIC90 [10]: 4 µg/mL (≈ 11.4 µM)
half-life [11]: 8 h
MIC90 [12]: 0.06 µg/mL (≈ 0.171 µM)

COc1c(N2C[C@@H]3CCCN[C@@H]3C2)c(F)cc2c(=O)c(C(=O)O)cn(C3CC3)c12 [MOXIFLOXACIN]
MIC90 [1]: 0.12 µg/mL (≈ 0.299 µM)
MIC90 [2]: 0.06 µg/mL (≈ 0.149 µM)
MIC90 [4]: 8 µg/mL (≈ 19.9 µM)
Cmax [13]: 3100 ng/mL
AUC [14]: 30000 ng·h/mL
MIC90 [9]: 0.06 µg/mL (≈ 0.149 µM)
MIC90 [10]: 2 µg/mL (≈ 4.98 µM)
MIC90 [12]: 0.06 µg/mL (≈ 0.149 µM)

CCn1cc(C(=O)O)c(=O)c2ccc(C)nc21 [NALIDIXIC ACID]
MIC90 [1]: 16 µg/mL (≈ 68.9 µM)
MIC90 [2]: 2 µg/mL (≈ 8.61 µM)
MIC90 [4]: > 64 µg/mL
MIC90 [15]: > 64 µg/mL
MIC90 [6]: > 64 µg/mL
half-life [16]: 1.5 h
MIC90 [8]: > 64 µg/mL
MIC90 [17]: > 64 µg/mL
MIC90 [9]: > 64 µg/mL
MIC90 [10]: > 64 µg/mL
MIC90 [12]: 8 µg/mL (≈ 34.4 µM)

CCn1cc(C(=O)O)c(=O)c2cc(F)c(N3CCNCC3)cc21 [NORFLOXACIN]
AUC [18]: 10000 ng·h/mL
Cmax [19]: 1500 ng/mL
MIC90 [1]: 0.5 µg/mL (≈ 1.57 µM)
MIC90 [2]: 0.06 µg/mL (≈ 0.188 µM)
MIC90 [4]: 2 µg/mL (≈ 6.26 µM)
fraction unbound [20]: 0.85
MIC90 [6]: 16 µg/mL (≈ 50.1 µM)
MIC90 [8]: 4 µg/mL (≈ 12.5 µM)
MIC90 [17]: > 64 µg/mL
MIC90 [9]: 1 µg/mL (≈ 3.13 µM)
MIC90 [10]: 4 µg/mL (≈ 12.5 µM)
half-life [21]: 3 h
MIC90 [12]: 0.12 µg/mL (≈ 0.376 µM)

CC1COc2c(N3CCN(C)CC3)c(F)cc3c(=O)c(C(=O)O)cn1c23 (centres undefined) [OFLOXACIN]
AUC [18]: 64000 ng·h/mL
Cmax [19]: 4800 ng/mL
MIC90 [1]: 0.5 µg/mL (≈ 1.38 µM)
MIC90 [2]: 0.03 µg/mL (≈ 0.083 µM)
MIC90 [4]: 4 µg/mL (≈ 11.1 µM)
fraction unbound [20]: 0.6
MIC90 [15]: 1 µg/mL (≈ 2.77 µM)
MIC90 [6]: 2 µg/mL (≈ 5.53 µM)
MIC90 [8]: 2 µg/mL (≈ 5.53 µM)
MIC90 [17]: 16 µg/mL (≈ 44.3 µM)
MIC90 [9]: 0.5 µg/mL (≈ 1.38 µM)
MIC90 [10]: 2 µg/mL (≈ 5.53 µM)
half-life [21]: 6 h
MIC90 [12]: 0.12 µg/mL (≈ 0.332 µM)

C[C@@H]1CN(c2c(F)c(N)c3c(=O)c(C(=O)O)cn(C4CC4)c3c2F)C[C@H](C)N1 [SPARFLOXACIN]
MIC90 [1]: 0.5 µg/mL (≈ 1.27 µM)
MIC90 [2]: 0.03 µg/mL (≈ 0.0765 µM)
Cmax [3]: 1000 ng/mL
MIC90 [4]: 4 µg/mL (≈ 10.2 µM)
MIC90 [15]: 0.25 µg/mL (≈ 0.637 µM)
Activity [22]: > 10%
fraction unbound [5]: 0.6
Activity [23]: > 10%
MIC90 [6]: 0.5 µg/mL (≈ 1.27 µM)
AUC [7]: 20000 ng·h/mL
Activity [24]: 0.5 to 2%
MIC90 [8]: 1 µg/mL (≈ 2.55 µM)
MIC90 [17]: 4 µg/mL (≈ 10.2 µM)
MIC90 [9]: 0.12 µg/mL (≈ 0.306 µM)
MIC90 [10]: 2 µg/mL (≈ 5.1 µM)
Activity [25]: 2.9%
half-life [11]: 18 h
MIC90 [12]: 0.06 µg/mL (≈ 0.153 µM)

CC1CN(c2cc3c(cc2F)c(=O)c(C(=O)O)cn3-c2ccc(F)cc2F)CCN1 (centres undefined) [TEMAFLOXACIN]
hemolysis [26]: 0.02%
Activity [27]: 0.02%
Activity [28]: 0.02%

N[C@@H]1[C@H]2CN(c3nc4c(cc3F)c(=O)c(C(=O)O)cn4-c3ccc(F)cc3F)C[C@@H]12 [TROVAFLOXACIN]
AUC [29]: 40000 ng·h/mL
MIC90 [2]: 0.01 µg/mL (≈ 0.024 µM)
MIC90 [4]: 1 µg/mL (≈ 2.4 µM)
Activity [30]: 12 to 16%
Activity [31]: 2 to 11%
MIC90 [6]: 0.12 µg/mL (≈ 0.288 µM)
Cmax [32]: 2500 ng/mL
MIC90 [9]: 0.03 µg/mL (≈ 0.0721 µM)
MIC90 [10]: 1 µg/mL (≈ 2.4 µM)
MIC90 [12]: 0.06 µg/mL (≈ 0.144 µM)
